Test [1] relates to Wnt activity (Sp5-Luc reporter, SW480 colon carcinoma cells). The test can be described thus: Sp5-Luc Wnt reporter gene assay in SW480 colon carcinoma cells. The test is classed as cell-based. Conditions: Homo sapiens; SW480 cells stably expressing Sp5-Luc reporter; 42 h incubation; BrightGlo luminescence normalized to DMSO. Summed up: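 IC50 values come from variable-slope four-parameter fits of luciferase signal normalized to DMSO wells. Stable Sp5-Luc reporter SW480 colon carcinoma cells were exposed to compounds in a 3-fold dilution series (source plates from 10 mM stock) for forty-two hours at 37 °C.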
(In general: In a reporter assay the amount or activity of a reporter protein is the signal.)

The test system of test [2] is primary human fibroblasts derived from IPF patients (LL29 cells). The test can be described thus: Inhibition of TGF-β1-induced fibrosis (αSMA staining) in primary human fibroblasts from IPF patients. The test is classed as cell-based. Conditions: Fibroblast, 96 h, TGF-β1 20 ng/mL, 4 days, 11-point dose-response 10 μM to 1.87 nM. The source says:
The above synthesized compounds were screened using primary human fibroblasts (derived from IPF patients) treated with TGF-β1 to determine their ability to inhibit the fibrotic process.
Primary human fibroblasts derived from IPF patients (LL29 cells) [^1Xiaoqiu Liu, et. al., “Fibrotic Lung Fibroblasts Show Blunted Inhibition by cAMP Due to Deficient cAMP Response Element-Binding Protein Phosphorylation”, Journal of Pharmacology and Experimental Therapeutics (2005), 315(2), 678-687; ^2Watts, K. L., et. al., “RhoA signaling modulates cyclin D1 expression in human lung fibroblasts; implications for idiopathic pulmonary fibrosis”, Respiratory Research (2006), 7(1), 88] were obtained from American Type Culture Collection (ATCC) and expanded in F12 medium supplemented with 15% Fetal Bovine Serum and Penicillin/Streptomycin.
Each compound was dissolved in DMSO as a 10 mM stock and used to prepare compound source plates. Serial dilution (1:2, 11-point dose-response curves from 10 μM to 1.87 nM) and compound transfer was performed using the ECHO 550 (Labcyte, Sunnyvale, Calif.) into 384-well clear bottom assay plates (Greiner Bio-One) with appropriate DMSO backfill for a final DMSO concentration of 0.1%. LL29 cells were plated at 1,500 cells/well in 80 μl/well F12 medium supplemented with 1% Fetal Bovine Serum. One hour after addition of the cells, TGF-β1 (Peprotech; 20 ng/mL) was added to the plates to induce fibrosis (ref. 1 and 2 above). Wells treated with TGF-β1 and containing DMSO were used as controls. Cells were incubated at 37° C. and 5% CO2 for 4 days. Following incubation for 4 days, SYTOX green nucleic acid stain (Life Technologies [Thermo Fisher Scientific]) was added to the wells at a final concentration of 1 uM and incubated at room temperature for 30 min. Cells were then fixed using 4% formaldehyde (Electron Microscopy Sciences), washed 3 times with PBS followed by blocking and permeabilization using 3% Bovine Serum Albumin (BSA; Sigma) and 0.3% Triton X-100 (Sigma) in PBS. Cells were then stained with antibody specific to α-smooth muscle actin (αSMA; Abcam) (ref 1 and 2 above) in 3% Bovine Serum Albumin (BSA; Sigma) and 0.3% Triton X-100 (Sigma) in PBS, and incubated overnight at 4° C. Cells were then washed 3 times with PBS, followed by incubation with Alexa Flor-647 conjugated secondary antibody (Life Technologies [Thermo Fisher Scientific]) and DAPI at room temperature for 1 hour. Cells were then washed 3 times with PBS and plates were sealed for imaging. αSMA staining was imaged by excitation at 630 nm and emission at 665 nm and quantified using the Compartmental Analysis program on the CellInsight CX5 (Thermo Scientific). Dead or apoptotic cells were excluded from analysis based on positive SYTOX green staining. % of total cells positive for αSMA were counted in each well and normalized to the average of 11 wells treated with TGF-β1 on the same plate using Dotmatics' Studies Software. The normalized averages (fold change over untreated) of 3 replicate wells for each compound concentration were used to create dose-responses curves and EC50 values were calculated using non-linear regression curve fit in the Dotmatics' Studies Software. The EC50 values are reported.

A value given as a limit tells only on which side of the number the result lay.

Regarding `CC(C)CC(=O)Nc1cncc(-c2cnc3[nH]nc(-c4nc5c(-c6ccc(F)s6)nccc5[nH]4)c3c2)c1` [Compound 314, N-(5-(3-(4-(5-Fluorothiophen-2-yl)-1H-imidazo[4,5-c]pyridin-2-yl)-1H-pyrazolo[3,4-b]pyridin-5-yl)pyridin-3-yl)-3-methylbutanamide], in test [1], the midpoint of inhibition, the IC50, lay at 0.0063 µM. Moreover, in test [2], the concentration for a half-maximal effect (EC50) is 0.009 µM.
`CC(C)(C)C(=O)Nc1cncc(-c2cnc3[nH]nc(-c4nc5c(-c6ccc(F)s6)nccc5[nH]4)c3c2)c1` [Compound 320, N-(5-(3-(4-(5-Fluorothiophen-2-yl)-1H-imidazo[4,5-c]pyridin-2-yl)-1H-pyrazolo[3,4-b]pyridin-5-yl)pyridin-3-yl)pivalamide] yielded an IC50 in test [1] of 0.0093 µM. In test [2], this compound came in with an EC50 of 0.009 µM.
With `Cc1ccc(-c2nccc3[nH]c(-c4n[nH]c5ncc(-c6cncc(NC(=O)C(C)C)c6)cc45)nc23)s1` [Compound 347, N-(5-(3-(4-(5-Methylthiophen-2-yl)-1H-imidazo[4,5-c]pyridin-2-yl)-1H-pyrazolo[3,4-b]pyridin-5-yl)pyridin-3-yl)isobutyramide], in test [1], the midpoint of inhibition, the IC50, lay at 0.0208 µM. Also, the EC50 in test [2] turned out to be 0.633 µM.
Compound `Cc1ccc(-c2nccc3[nH]c(-c4n[nH]c5ncc(-c6cncc(CN7CCCCC7)c6)cc45)nc23)s1` [Compound 353, 3-(4-(5-Methylthiophen-2-yl)-1H-imidazo[4,5-c]pyridin-2-yl)-5-(5-(piperidin-1-ylmethyl)pyridin-3-yl)-1H-pyrazolo[3,4-b]pyridine] registered an IC50 in test [1] of 0.576 µM. The compound further had an EC50 in test [2] of 0.009 µM.
For `Cc1ccc(-c2nccc3[nH]c(-c4n[nH]c5ncc(-c6cncc(NC(=O)C7CCCC7)c6)cc45)nc23)s1` [Compound 359, N-(5-(3-(4-(5-Methylthiophen-2-yl)-1H-imidazo[4,5-c]pyridin-2-yl)-1H-pyrazolo[3,4-b]pyridin-5-yl)pyridin-3-yl)cyclopentanecarboxamide] the same measures were 0.0299 µM and 4.85 µM.
Consider `CC(=O)c1ccc(-c2nccc3[nH]c(-c4n[nH]c5ncc(-c6cncc(NC(=O)Cc7ccccc7)c6)cc45)nc23)s1` [Compound 374, N-(5-(3-(4-(5-Acetylthiophen-2-yl)-1H-imidazo[4,5-c]pyridin-2-yl)-1H-pyrazolo[3,4-b]pyridin-5-yl)pyridin-3-yl)-2-phenylacetamide], for which the IC50 in test [1] is > 10 µM. The concentration for a half-maximal effect (EC50) in test [2] came out at 0.427 µM.
The compound `CC(=O)c1ccc(-c2nccc3[nH]c(-c4n[nH]c5ncc(-c6cncc(NC(=O)C7CCCCC7)c6)cc45)nc23)s1` [Compound 386, N-(5-(3-(4-(5-Acetylthiophen-2-yl)-1H-imidazo[4,5-c]pyridin-2-yl)-1H-pyrazolo[3,4-b]pyridin-5-yl)pyridin-3-yl)cyclohexanecarboxamide] gave a 50% inhibitory concentration (IC50) in test [1] of 0.188 µM. Moreover, the EC50 in test [2] turned out to be 0.053 µM.
Turning to `CS(=O)(=O)NCc1cc(F)cc(-c2nccc3[nH]c(-c4n[nH]c5ncc(-c6cncc(NC(=O)c7ccccc7)c6)cc45)nc23)c1` [Compound 401, N-(5-(3-(4-(3-Fluoro-5-(methylsulfonamidomethyl)phenyl)-1H-imidazo[4,5-c]pyridin-2-yl)-1H-pyrazolo[3,4-b]pyridin-5-yl)pyridin-3-yl)benzamide], the IC50 in test [1] was > 10 µM. Moreover, the EC50 in test [2] was ≥ 9.99 µM.
In the case of `CS(=O)(=O)NCc1cc(F)cc(-c2nccc3[nH]c(-c4n[nH]c5ncc(-c6cncnc6)cc45)nc23)c1` [Compound 416, N-(3-Fluoro-5-(2-(5-(pyrimidin-5-yl)-1H-pyrazolo[3,4-b]pyridin-3-yl)-1H-imidazo[4,5-c]pyridin-4-yl)benzyl)methanesulfonamide], in test [1], the IC50 is > 10 µM. Moreover, the EC50 in test [2] is ≥ 9.99 µM.
On to `CCCCC(=O)Nc1cncc(-c2cnc3[nH]nc(-c4nc5c(-c6cc(F)cc(NCCN(C)C)c6)nccc5[nH]4)c3c2)c1` [Compound 434, N-(5-(3-(4-(3-((2-(Dimethylamino)ethyl)amino)-5-fluorophenyl)-1H-imidazo[4,5-c]pyridin-2-yl)-1H-pyrazolo[3,4-b]pyridin-5-yl)pyridin-3-yl)pentanamide], for which, in test [1], the IC50 stood at 0.0219 µM. The EC50 in test [2] is 0.013 µM.
In turn, `CN(C)CCNc1cc(F)cc(-c2nccc3[nH]c(-c4n[nH]c5ncc(-c6cncc(CNCC7CCCC7)c6)cc45)nc23)c1` [Compound 440, N^1-(3-(2-(5-(5-(((Cyclopentylmethyl)amino)methyl)pyridin-3-yl)-1H-pyrazolo[3,4-b]pyridin-3-yl)-1H-imidazo[4,5-c]pyridin-4-yl)-5-fluorophenyl)-N^2,N^2-dimethylethane-1,2-diamine] displayed an IC50 in test [1] of 0.752 µM. Besides, a half-maximal response in test [2] (EC50) required 0.858 µM.
As to `Fc1cccc(-c2nccc3[nH]c(-c4n[nH]c5ncc(C6CCNCC6)cc45)nc23)c1` [Compound 885, 3-(4-(3-Fluorophenyl)-1H-imidazo[4,5-c]pyridin-2-yl)-5-(piperidin-4-yl)-1H-pyrazolo[3,4-b]pyridine], the IC50 in test [1] was determined as 3.87 µM. The compound also came in with an EC50 in test [2] of 0.009 µM.
In the case of `Fc1cccc(-c2nccc3[nH]c(-c4n[nH]c5ncc(-c6cn[nH]c6)cc45)nc23)c1` [Compound 887, 3-(4-(3-Fluorophenyl)-1H-imidazo[4,5-c]pyridin-2-yl)-5-(1H-pyrazol-4-yl)-1H-pyrazolo[3,4-b]pyridine], in test [1], half-maximal inhibition (IC50) required 0.006 µM. In test [2], this compound registered an EC50 of 0.01 µM.
In test [1], `NC1CN(c2cncc(-c3cnc4[nH]nc(-c5nc6c(-c7cccc(F)c7)nccc6[nH]5)c4c3)n2)C1` [Compound 890, 1-(6-(3-(4-(3-Fluorophenyl)-1H-imidazo[4,5-c]pyridin-2-yl)-1H-pyrazolo[3,4-b]pyridin-5-yl)pyrazin-2-yl)azetidin-3-amine] came in with an IC50 of 0.365 µM. This compound registered an EC50 in test [2] of 0.205 µM.
In test [1], `Fc1cccc(-c2nccc3[nH]c(-c4n[nH]c5ncc(-c6cncc(OC7CCNCC7)c6)cc45)nc23)c1` [Compound 892, 3-(4-(3-Fluorophenyl)-1H-imidazo[4,5-c]pyridin-2-yl)-5-(5-(piperidin-4-yloxy)pyridin-3-yl)-1H-pyrazolo[3,4-b]pyridine] gave an IC50 of 0.315 µM. Also, the response in test [2] was half-maximal at 0.009 µM (EC50).
The compound `O=C(CC1CCNCC1)Nc1cncc(-c2cnc3[nH]nc(-c4nc5c(-c6cccc(F)c6)nccc5[nH]4)c3c2)c1` [Compound 893, N-(5-(3-(4-(3-Fluorophenyl)-1H-imidazo[4,5-c]pyridin-2-yl)-1H-pyrazolo[3,4-b]pyridin-5-yl)pyridin-3-yl)-2-(piperidin-4-yl)acetamide] yielded an IC50 in test [1] of 0.868 µM. This compound gave an EC50 in test [2] of 0.308 µM.
The compound `CN(C)CCOc1cncc(-c2cnc3[nH]nc(-c4nc5c(-c6cccc(F)c6)nccc5[nH]4)c3c2)c1` [Compound 895, 2-((5-(3-(4-(3-Fluorophenyl)-1H-imidazo[4,5-c]pyridin-2-yl)-1H-pyrazolo[3,4-b]pyridin-5-yl)pyridin-3-yl)oxy)-N,N-dimethylethan-1-amine] registered an IC50 in test [1] of 0.343 µM. In addition, in test [2], the EC50 was ≥ 9.99 µM.
Compound `COc1cncc(-c2cnc3[nH]nc(-c4nc5c(-c6cccc(F)c6)nccc5[nH]4)c3c2)c1` [Compound 896, 3-(4-(3-Fluorophenyl)-1H-imidazo[4,5-c]pyridin-2-yl)-5-(5-methoxypyridin-3-yl)-1H-pyrazolo[3,4-b]pyridine] came in with an IC50 in test [1] of 0.037 µM. Moreover, the EC50 in test [2] was found to be 0.108 µM.

A word on the IC50: it is the midpoint of a concentration-inhibition curve. Read a high IC50 as weaker potency in that assay. One may read the EC50 as the concentration at which the effect is half-maximal.

The record behind these values is US9493487B2, “3-(1H-imidazo[4,5-C]pyridin-2-YL)-1H-pyrazolo[3,4-B]pyridine and therapeutic uses thereof” (Samumed, LLC, priority 2014, dated 2016).
